The values below come from US10160771B2, “Hepatitis C virus inhibitors and uses thereof in preparation of drugs” (priority 2014, dated 2018).

In one assay the test system is HCV genotype 1b (HCV-1b) replicon cells. The experiment in a line: HCV genotype 1b replicon luciferase assay (EC50). It is filed as cell-based, hepatitis C virus genotype 1b (Con1 clone). The settings on record: 3 days, luciferase (Bright-Glo). The procedure:
The EC50 and CC50 values of anti-HCV compounds were determined by HCV genotype 1a (HCV-1a) and 1B (HCV-1b) stable transfer replication (replicon) cells. The source of genotype 1a replicon is H77 clones containing K1691R, K2040R and S2204I adaptive mutations. The source of genotype 1b replicon is Con1 clones containing E1202G, T1280I and K1846T adaptive mutations.
HCV 1a (HCV-1a) and 1b (HCV-1b) gene subtype replicon system contains the related HCV gene subtype non structural protein gene, G418 resistance gene NEO and luciferase gene, which results in that HCV related protein and luciferase can be stably expressed in cells. By detecting the level of expression of luciferase gene, the level of HCV replication can be determined. Therefore, the system is used as a model for screening the activity of anti-HCV compound in vitro.
HCV Replicon Cell Lines: HCV-1a and HCV-1b Cells
The compound powder was dissolved in 100% DMSO. Then the compound was diluted 5 times with 6 points, and added into the cell plate with Echo liquid handler. Ensure the final concentration of DMSO was 0.5%. Each compound was tested in double holes. Maximum initial concentration was 100, 10 or 1 nM, 5 times dilution, 6 points.
b) Cell Culture (HCV-1a or HCV-1b Replicon Cell):
1) absorbing the culture supernatant of the cell culture and washing the cells with 10 mL PBS.
2) adding preheated pancreatin to the washed cell culture flasks, rotating culture bottle to make the bottom of the culture bottle uniformly covered by pancreatin, then placed into 37° C., 5% CO2 incubator to digest.
3) suspending cells in each T150 culture flask with 10-15 mL culture medium, absorbing 0.1 mL liquid and diluting 2 times by trypan blue solution as counted.
4) diluting cells to 8×10^4/mL with the culture medium, adding the diluted cells into the compound-containing 96-well plate (Greiner, Cat.#655090) (100 μL/well, 8000 cells/well) with automatic liquid separator (Thermo Scientific). Then place into a 37° C., 5% CO2 incubator for 3 days. Cell control well: no compound, only containing 0.5% DMSO.
6) then adding luciferase luminescence substrate Bright-Glo, after incubation for 5 minutes, detecting the luciferase activity by chemical luminescence detection system Envison (wavelength>700 nm); analyzing the anti-HCV inhibitory activity of the compounds according to luciferase data, which was used to calculate EC50 values.
The EC50 or CC50 values were obtained by nonlinear fitting analysis on inhibition percentage (inh %) data with GraphPad Prism software.
As for `COC(=O)N[C@H](C(=O)N1CCC[C@H]1c1ncc(-c2ccc(-c3ccc(-c4cnc(C5C6CCC(C6)[C@H]5C(=O)N(NC(=O)OC)C(C)C)[nH]4)cc3)cc2)[nH]1)C(C)C` (stereo partly drawn) [AA_016], the EC50 was in the range of 0.101 to 1 nM.

Still in this assay, the particulars now being: Hepatitis C virus, 72 h, 3 days, luciferase (Bright-Glo).
In turn, `COC(=O)N[C@H](C(=O)N1CCC[C@H]1c1ncc(-c2ccc(-c3ccc(-c4cnc(C5=C(C(=O)NC(C)C)CCC5)[nH]4)cc3)cc2)[nH]1)C(C)C` [AA_027] displayed an EC50 of 10 to 100 nM.

`COC(=O)NC(C(=O)C1CCCCC1c1ncc(-c2ccc(-c3ccc(-c4cnc(C5CCCC[C@H]5C(=O)N(NC(=O)OC)C(C)C)[nH]4)cc3)cc2)[nH]1)C(C)C` (stereo partly drawn) [AA_029] came in with an EC50 of 10 to 100 nM.

For `COC(=O)N[C@H](C(=O)N1CCC[C@H]1c1ncc(-c2ccc(-c3ccc(-c4cnc(C5C6C=CC(C6)[C@H]5C(=O)N(NC(=O)OC)C(C)C)[nH]4)cc3)cc2)[nH]1)C(C)C` (stereo partly drawn) [AA_032], the EC50 is 0.101 to 1 nM.

Regarding `COC(=O)N[C@H](C(=O)N1CCC[C@H]1c1ncc(-c2ccc(-c3ccc(-c4cnc(C5=C(C(=O)N(CC(=O)O)C(C)C)CCC5)[nH]4)cc3)cc2)[nH]1)C(C)C` [AA_047], the EC50 lay within 10 to 100 nM.

As to `COC(=O)N[C@H](C(=O)N1CCC[C@H]1c1ncc(-c2ccc(-c3ccc(-c4cnc(C5CCCC[C@H]5C(=O)N5CCNC(=O)C5)[nH]4)cc3)cc2)[nH]1)C(C)C` (stereo partly drawn) [AA_054], the EC50 lay in the range of 0.101 to 1 nM.

With `COC(=O)N[C@H](C(=O)N1CCC[C@H]1c1ncc(-c2ccc(-c3ccc(-c4cnc(C5CCCC[C@H]5C(=O)N5CCCC5)[nH]4)cc3)cc2)[nH]1)C(C)C` (stereo partly drawn) [AA_055], the EC50 was in the range of 1 to 10 nM.

`COC(=O)N[C@H](C(=O)N1CCC[C@H]1c1ncc(-c2ccc(-c3ccc(-c4cnc(C5CCCC[C@H]5C(=O)N5CCOCC5)[nH]4)cc3)cc2)[nH]1)C(C)C` (stereo partly drawn) [AA_056] showed an EC50 of 1 to 10 nM.

The molecule `COC(=O)N[C@H](C(=O)N1CCC[C@H]1c1ncc(-c2ccc(-c3ccc(-c4cnc(C5CCCC[C@H]5C(=O)N5CCCCC5)[nH]4)cc3)cc2)[nH]1)C(C)C` (stereo partly drawn) [AA_057] showed an EC50 of 10 to 100 nM.

Turning to `COC(=O)CN(C(=O)[C@@H]1CCCCC1c1ncc(-c2ccc(-c3ccc(-c4cnc([C@@H]5CCCN5C(=O)[C@@H](NC(=O)OC)C(C)C)[nH]4)cc3)cc2)[nH]1)C(C)C` (stereo partly drawn) [AA_063], the EC50 was in the range of 1 to 10 nM.

Consider `COC(=O)N[C@H](C(=O)N1CCC[C@H]1c1ncc(-c2ccc(-c3ccc(-c4cnc(C5=C(C(=O)N(CC(=O)NC6CC6)C(C)C)CCC5)[nH]4)cc3)cc2)[nH]1)C(C)C` [AA_064], for which the EC50 was 1 to 10 nM.

The molecule `CNC(=O)CN(C(=O)C1=C(c2ncc(-c3ccc(-c4ccc(-c5cnc([C@@H]6CCCN6C(=O)[C@@H](NC(=O)OC)C(C)C)[nH]5)cc4)cc3)[nH]2)CCC1)C(C)C` [AA_065] came in with a half-maximal effective concentration (EC50) of 1 to 10 nM.

`COC(=O)NC(C(=O)N1CCC[C@H]1c1ncc(-c2ccc(-c3ccc4cc(-c5cnc(C6CCCC[C@H]6C(=O)N(NC(=O)OC)C(C)C)[nH]5)ccc4c3)cc2)[nH]1)C1CCOC1` (stereo partly drawn) [AA_076] returned an EC50 of 1 to 10 nM.

For `COC(=O)N[C@H](C(=O)N1CCC[C@H]1c1ncc(-c2ccc3cc(-c4cnc(C5CCCC[C@H]5C(=O)N(NC(=O)OC)C(C)C)[nH]4)ccc3c2)[nH]1)C(C)C` (stereo partly drawn) [AA_079], the EC50 was in the range of 10 to 100 nM.

In turn, `COC(=O)NC(C(=O)[C@@H]1CCCCC1c1ncc(-c2ccc(-c3ccc4c(c3)cc3n4C(c4ccc(F)cc4)Oc4cc(-c5cnc([C@@H]6CCCN6C(=O)[C@@H](NC(=O)OC)C(C)C)[nH]5)ccc4-3)cc2)[nH]1)C(C)C` (stereo partly drawn) [AA_089] had an EC50 of 1 to 10 nM.

As for `COC(=O)N[C@H](C(=O)N1CCC[C@H]1c1ncc(-c2ccc3cc(-c4ccc(-c5cnc([C@@H]6CCCC[C@@H]6C(=O)N(NC(=O)OC)C(C)C)[nH]5)cc4)ccc3c2)[nH]1)C(C)C` [AA_090_A], the EC50 lay in the range of 1 to 10 nM.

In turn, `COC(=O)N[C@H](C(=O)N1CCC[C@H]1c1ncc(-c2ccc3cc(-c4ccc(-c5cnc([C@H]6CCCC[C@H]6C(=O)N(NC(=O)OC)C(C)C)[nH]5)cc4)ccc3c2)[nH]1)C(C)C` [AA_090_B] had a concentration for a half-maximal effect (EC50) of 1 to 10 nM.

On to `COC(=O)NN(C(=O)C1C2CCC(O2)[C@H]1c1ncc(-c2ccc(-c3ccc4cc(-c5cnc(C6CCCC[C@H]6C(=O)N(NC(=O)OC)C(C)C)[nH]5)ccc4c3)cc2)[nH]1)C(C)C` (stereo partly drawn) [AA_092], for which the EC50 lay within 10 to 100 nM.
